molecular target: NAD(P)H dehydrogenase [quinone] 1 (Homo sapiens, UniProt P15559)
Sequence (P15559 whole entry): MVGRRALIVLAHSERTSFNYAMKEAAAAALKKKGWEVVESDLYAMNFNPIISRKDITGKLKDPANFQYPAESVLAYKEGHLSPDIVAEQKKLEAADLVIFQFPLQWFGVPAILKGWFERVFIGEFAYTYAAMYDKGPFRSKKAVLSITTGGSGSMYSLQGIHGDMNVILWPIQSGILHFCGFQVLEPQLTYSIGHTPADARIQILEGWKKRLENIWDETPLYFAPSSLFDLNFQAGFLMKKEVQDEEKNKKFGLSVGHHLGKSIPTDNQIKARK
Description: Inhibition of human recombinant NQO1

SMILES | IC50 [µM]
Nc1nc2cc3nc(N)c(N)nc3cc2nc1N | 25
Nc1ccc(O)c2c1C(=O)c1c(O)c(S(=O)(=O)O)cc(N)c1C2=O | 7.5
O=c1c2ccccc2c(=O)c2c1c(O)cc1[nH]c3ccccc3[nH]c12 | 2
Cn1ncc2c(Cl)ncnc21 | 105
Cc1cc(=O)cc(C)o1 | 20
O=[N+]([O-])c1ccc(N/N=C(\N=N\c2ccccc2)c2nc3ccccc3[nH]2)c([N+](=O)[O-])c1 | 35
CN(C)CCNc1ccc2ncn3c4ccc(O)cc4c(=O)c1c23 | 10
CCOc1ccc(OCC)cc1 [1,4-DIETHOXYBENZENE] | 3.5
CNC(=O)N(OC(N)=O)C(C)=O | 55
O=C1c2ccccc2C(=O)c2c(O)c(NCCCNCCO)cc(O)c21 | 17.5
C(=N\NC1=NCCN1)/c1c2ccccc2c(/C=N/NC2=NCCN2)c2ccccc12 [BISANTRENE] | 25
CCOC(=O)C1=NN(c2ccccc2)C(=O)/C1=C\NC(=S)N/N=C1\C(=O)Nc2ccccc21 | 35
COc1ccc(OC)c2cc3ccccc3cc12 | 10
O=C1c2ccccc2C(=O)c2c(O)c(NCCCN(CCO)CCO)cc(O)c21 | 3
Cn1c2cc(O)ccc2c2c3nc4ccccc4nc3cc(O)c21 | 3
COc1ccc2c(c1)-c1nn(CCCN(C)C)c3ccc([N+](=O)[O-])c(c13)N2 [PYRAZOLOACRIDINE] | 45
O=C1c2ccccc2C(=O)c2c(O)c(NCCCN3CCOCC3)cc(O)c21 | 2
